Test results as given in the NIST ThermoML archive (doi:10.1016/j.tca.2017.03.018).
Numbers after ± are expanded uncertainties.

Experiments:
[1] = relative permittivity at zero frequency (dimensionless); conditions: 100 kPa, Liquid, time-domain reflectometry
[2] = relative permittivity at zero frequency (dimensionless); wn = mass fraction of the nth substance listed; conditions: 100 kPa, Liquid, time-domain reflectometry

C[S+](C)[O-] [dimethyl sulfoxide]
[1]
Conditions | relative permittivity at zero frequency
283.15 K | 50.58 ± 1
288.15 K | 49.42 ± 0.99
293.15 K | 47.81 ± 0.96
298.15 K | 47.3 ± 0.95

C[S+](C)[O-] [dimethyl sulfoxide] + OC[C@@H](O)[C@@H](O)CO
[2], w2 = 0
Conditions | relative permittivity at zero frequency
283.15 K | 50.58 ± 1
288.15 K | 49.42 ± 0.99
293.15 K | 47.81 ± 0.96
298.15 K | 47.3 ± 0.95

C[S+](C)[O-] [dimethyl sulfoxide] + OC[C@@H](O)[C@@H](O)[C@H](O)[C@H](O)CO
[2], w2 = 0
Conditions | relative permittivity at zero frequency
283.15 K | 50.58 ± 1
288.15 K | 49.42 ± 0.99
293.15 K | 47.81 ± 0.96
298.15 K | 47.3 ± 0.95

C[S+](C)[O-] [dimethyl sulfoxide] + OC[C@@H](O)[C@H](O)[C@@H](O)CO
[2], w2 = 0
Conditions | relative permittivity at zero frequency
283.15 K | 50.58 ± 1
288.15 K | 49.42 ± 0.99
293.15 K | 47.81 ± 0.96
298.15 K | 47.3 ± 0.95

OC[C@@H](O)[C@@H](O)[C@H](O)[C@H](O)CO [mannitol] + C[S+](C)[O-]
relative permittivity at zero frequency, [2]
Conditions | 283.15 K | 288.15 K | 293.15 K | 298.15 K
w1 = 0.05 | 52.35 ± 1.1 | 50.82 ± 1 | 49.49 ± 0.99 | 48.89 ± 0.98
w1 = 0.1 | 55.31 ± 1.1 | 52.92 ± 1.1 | 51.48 ± 1 | 50.27 ± 1
w1 = 0.15 | 56.79 ± 1.1 | 55.37 ± 1.1 | 53.15 ± 1.1 | 52.18 ± 1

OC[C@@H](O)[C@@H](O)CO [meso-1,2,3,4-butanetetrol] + C[S+](C)[O-]
relative permittivity at zero frequency, [2]
Conditions | w1 = 0.05 | w1 = 0.1 | w1 = 0.15 | w1 = 0.2 | w1 = 0.25
283.15 K | 51.26 ± 1 | 54.06 ± 1.1 | 55.7 ± 1.1 | 57.23 ± 1.1 | 58.96 ± 1.2
288.15 K | 50.01 ± 1 | 51.84 ± 1 | 52.87 ± 1.1 | 54.96 ± 1.1 | 55.78 ± 1.1
293.15 K | 48.57 ± 0.97 | 50.49 ± 1 | 51.35 ± 1 | 53.36 ± 1.1 | 54.3 ± 1.1
298.15 K | 47.78 ± 0.96 | 48.96 ± 0.98 | 50.43 ± 1 | 52.23 ± 1.1 | 52.77 ± 1.1

OC[C@@H](O)[C@H](O)[C@@H](O)CO [xylitol] + C[S+](C)[O-]
relative permittivity at zero frequency, [2]
Conditions | w1 = 0.05 | w1 = 0.1 | w1 = 0.15 | w1 = 0.2 | w1 = 0.25
283.15 K | 52.53 ± 1.1 | 53.28 ± 1.1 | 56.35 ± 1.1 | 58.46 ± 1.2 | 58.08 ± 1.2
288.15 K | 50.33 ± 1 | 51.31 ± 1 | 53.72 ± 1.1 | 55.28 ± 1.1 | 55.18 ± 1.1
293.15 K | 49.39 ± 0.99 | 50.11 ± 1 | 52.45 ± 1.1 | 53.97 ± 1.1 | 54.23 ± 1.1
298.15 K | 48.1 ± 0.96 | 49.63 ± 0.99 | 51.6 ± 1 | 53.03 ± 1.1 | 53.69 ± 1.1
